Data: paper PMC6327999, “Hydroxyl-substituted double Schiff-base condensed 4-piperidone/cyclohexanones as potential anticancer agents with biological evaluation” (Journal of Enzyme Inhibition and Medicinal Chemistry, 2019)
Where two headings read alike, the source gives them in different places.

Columns and labels:
Type in all cases: cell-based
[1] = tested on: human chronic myelogenous leukemia cell line (K562); assay: Cytotoxicity, MTT assay, K562; settings: for IC50: Homo sapiens, K562, MTT, 24 hours; for K562 SI: quotient of the IC50 values towards nonmalignant LO2 cells
From the text: (§1) Compounds 2a–d, 3a–e, 4a–e, 5a–d, and 6a–c were screened against human neoplastic cell lines such as human lung carcinoma cells (A549), human gastric adenocarcinoma cells (SGC7901), human cervical carcinoma cells (HeLa), human liver hepatocellular carcinoma cell line (Hepg2), human chronic myelogenous leukemia cell line (K562), human acute mononuclear granulocyte leukemia (THP-1), human normal heptical cell line (LO2) (Table 1) using modified MTT assay (3-(4,5-dimethyl-2-thiazolyl)-2,5-diphenyl-2-H-tetrazolium bromide, MTT, Dojindo Laboratories, Tokyo, Japan). All cell lines were maintained at 37 °C in a humidified 5% CO2 and 95% air atmosphere. The HePG2 cell lines were cultured in DMEM containing 10% fetal bovine serum. Other cell lines were grown in medium 1640 and supplemented with 10% fetal bovine serum. […] Controls were prepared with 0.1% DMSO (v/v) only. The cells were seeded in a 96-well plate in 200 µL medium per well at a density of 1 × 10^4 cells/well for 24 hours. The cells were treated with serial concentrations of compound and incubated for 24 hours. Cells with only culture media were used as control. After the media was removed, 20 µL of MTT (5 mg/mL) was added then the plates were incubated for 4 hours at 37 °C in cell culture incubator. The MTT containing media were removed and then 150 µL of DMSO was added to dissolve the dark-blue formazan crystals. The optical density (OD) was measured by a multi-well plate reader (TECAN, Männedorf, Switzerland) at 570 nm. The results are expressed as a decrease in the cell viability (%) in comparison to untreated controls. The concentration of each compound was examined in triplicate, and the IC50 values are expressed in Table 1. The concentrations of the compounds were 50, 20, 10, 5, 2.5, 1, 0.5, 0.1, 0.05 and 0.01 µg/mL. Doxorubicin (DOX) and Curcumin were used as positive controls. […] The concentrations of curcumin used were 100, 50, 25, 12.5, 6.25, 3.125, 1, 0.5 and 0.1 µg/mL.

[2] = tested on: human carcinoma cell lines A549, SGC7901, HePG2, HeLa, K562, THP-1; assay: Cytotoxicity, MTT assay, panel of human carcinoma cell lines (average / overall); settings: for IC50: Homo sapiens
From the text: as §1
The cytotoxicity activities against human carcinoma cell lines A549, SGC7901, HePG2, HeLa, K562, THP-1 and cytotoxicity toward LO2 cell lines were evaluated by MTT method. DOX and curcumin were used as positive control. The selectivity index (SI) is the quotient of the IC50 values towards nonmalignant LO2 cells. […] Especially for 4a–e, 5a–d, and 6a–c, this ratio can reach about 92%.

[3] = tested on: human liver hepatocellular carcinoma cell line (Hepg2); assay: Cytotoxicity, MTT assay, HePG2; settings: for IC50: Homo sapiens, HepG2, MTT, 24 hours; for HePG2 SI: quotient of the IC50 values towards nonmalignant LO2 cells
From the text: as §1, with “µg/mL.” for “µg/mL. Doxorubicin (DOX) and Curcumin were used as positive controls.”

[4] = tested on: human cervical carcinoma cells (HeLa); assay: Cytotoxicity, MTT assay, HeLa; settings: for IC50: Homo sapiens, HeLa, MTT, 24 hours; for HeLa SI: quotient of the IC50 values towards nonmalignant LO2 cells
From the text: as §1

[5] = tested on: human lung carcinoma cells (A549); assay: Cytotoxicity, MTT assay, A549; settings: for IC50: Homo sapiens, A549, MTT, 24 hours; for A549 SI: quotient of the IC50 values towards nonmalignant LO2 cells
From the text: as §1

[6] = tested on: human gastric adenocarcinoma cells (SGC7901); assay: Cytotoxicity, MTT assay, SGC7901; settings: for IC50: Homo sapiens, SGC-7901, MTT, 24 hours; for SGC7901 SI: quotient of the IC50 values towards nonmalignant LO2 cells
From the text: as §1

[7] = tested on: human normal heptical cell line (LO2); assay: Cytotoxicity, MTT assay, non-malignant LO2; settings: 24 hours, non-malignant cells
From the text: as §1

[8] = tested on: human acute mononuclear granulocyte leukemia (THP-1); assay: Cytotoxicity, MTT assay, THP-1; settings: for IC50: Homo sapiens, THP-1, MTT, 24 hours; for THP-1 SI: quotient of the IC50 values towards nonmalignant LO2 cells
From the text: as §1

[9] = average over the six carcinoma cell lines, read-out: Ave IC50
[10] = average over the six carcinoma cell lines

For Nc1cccc(/C=C2\CCC/C(=C\c3cccc(N)c3)C2=O)c1 [2a, (2E,6E)-2,6-bis(3-aminobenzylidene)cyclohexanone], the IC50 [1] was 22.2 ± 1.9 µM, the “K562 SI” value [1] was 1.3 and the IC50 [2, 9] was 13.7 µM. For the same compound, the IC50 ([2]; statement for all experimental carcinoma cell lines, read-out: IC50 values against human carcinoma cell lines) was > 5 µM, the “Ave SI” value [2, 10] was 2.7 and the IC50 [3] was 10.7 ± 0.5 µM. The “HePG2 SI” value [3] was 2.6, the IC50 [4] was 25.9 ± 3.7 µM and the “HeLa SI” value [4] was 1.1. The IC50 [5] was 7.9 ± 0.1 µM, the “A549 SI” value [5] was 3.6 and the IC50 [6] was 9.4 ± 0.2 µM. For the same compound, the IC50 [7] was 28.2 ± 3.9 µM, the IC50 [8] was 6.2 ± 1.1 µM and the “THP-1 SI” value [8] was 4.5.
CN1C/C(=C\c2cccc(N)c2)C(=O)/C(=C/c2cccc(N)c2)C1 [2b, (3E,5E)-3,5-bis(3-aminobenzylidene)-1-methylpiperidin-4-one] was tested, and the IC50 [1] was 4.3 ± 0.1 µM, the “K562 SI” value [1] was 3.9 and the IC50 [2, 9] was 4 µM. The “Ave SI” value [2, 10] was 5.2, the IC50 [3] was 3.1 ± 0.2 µM and the “HePG2 SI” value [3] was 5.4. For the same compound, the IC50 [4] was 4.4 ± 0.1 µM, the “HeLa SI” value [4] was 3.8 and the IC50 [5] was 6.5 ± 0.1 µM. For the same compound, the “A549 SI” value [5] was 2.6, the IC50 [6] was 4.2 ± 0.3 µM and the “SGC7901 SI” value [6] was 4.0. For the same compound, the IC50 [7] was 16.9 ± 0.2 µM, the IC50 [8] was 1.5 ± 0.1 µM and the “THP-1 SI” value [8] was 11.5.
For Nc1ccc(F)c(/C=C2\CNC/C(=C\c3cc(N)ccc3F)C2=O)c1 [2c], the IC50 [1] was 2 ± 0.1 µM, the “K562 SI” value [1] was 9.3 and the IC50 [2, 9] was 2.9 µM. The “Ave SI” value [2, 10] was 8.0, the IC50 [3] was 5.8 ± 0.2 µM and the “HePG2 SI” value [3] was 3.2. The IC50 [4] was 2.2 ± 0.1 µM, the “HeLa SI” value [4] was 8.7 and the IC50 [5] was 3.4 ± 1.2 µM. The “A549 SI” value [5] was 5.5, the IC50 [6] was 2.5 ± 0.8 µM and the “SGC7901 SI” value [6] was 7.4. The IC50 [7] was 18.8 ± 1.4 µM, the IC50 [8] was 1.4 ± 0.2 µM and the “THP-1 SI” value [8] was 13.9.
With CN1C/C(=C\c2cc(N)ccc2F)C(=O)/C(=C/c2cc(N)ccc2F)C1 [2d] the IC50 [1] was 3 ± 0.1 µM, the “K562 SI” value [1] was 7.3 and the IC50 [2, 9] was 3.7 µM. For the same compound, the “Ave SI” value [2, 10] was 6.5, the IC50 [3] was 6.2 ± 0.3 µM and the “HePG2 SI” value [3] was 3.5. For the same compound, the IC50 [4] was 3.1 ± 0.1 µM, the “HeLa SI” value [4] was 6.9 and the IC50 [5] was 4.1 ± 1 µM. The “A549 SI” value [5] was 5.4, the IC50 [6] was 3.8 ± 1.2 µM and the “SGC7901 SI” value [6] was 5.6. The IC50 [7] was 21.6 ± 2.8 µM, the IC50 [8] was 2.1 ± 1.1 µM and the “THP-1 SI” value [8] was 10.3.
With O=C1/C(=C/c2cccc(/N=C/c3ccccc3O)c2)CCC/C1=C\c1cccc(/N=C/c2ccccc2O)c1 [3a] the IC50 [1] was 3.4 ± 0.01 µM, the “K562 SI” value [1] was 5.4 and the IC50 [2, 9] was 6.1 µM. For the same compound, the “Ave SI” value [2, 10] was 4.9, the IC50 [3] was 3.3 ± 0.1 µM and the “HePG2 SI” value [3] was 5.6. For the same compound, the IC50 [4] was 9.9 ± 0.3 µM, the “HeLa SI” value [4] was 1.8 and the IC50 [5] was 7.4 ± 0.3 µM. The “A549 SI” value [5] was 2.5, the IC50 [6] was 11.4 ± 0.2 µM and the “SGC7901 SI” value [6] was 1.6. The IC50 [7] was 18.2 ± 0.2 µM, the IC50 [8] was 1.5 ± 0.1 µM and the “THP-1 SI” value [8] was 12.4.
For O=C1/C(=C/c2cccc(/N=C/c3cc(F)ccc3O)c2)CCC/C1=C\c1cccc(/N=C/c2cc(F)ccc2O)c1 [3b], the IC50 [1] was 3.4 ± 0.01 µM, the “K562 SI” value [1] was 5.0 and the IC50 [2, 9] was 4.3 µM. The “Ave SI” value [2, 10] was 5.5, the IC50 [3] was 2.8 ± 0.1 µM and the “HePG2 SI” value [3] was 6.1. For the same compound, the IC50 [4] was 8.9 ± 0.2 µM, the “HeLa SI” value [4] was 1.9 and the IC50 [5] was 6.1 ± 0.4 µM. The “A549 SI” value [5] was 2.8, the IC50 [6] was 2.7 ± 0.6 µM and the “SGC7901 SI” value [6] was 6.4. For the same compound, the IC50 [7] was 17.1 ± 0.1 µM, the IC50 [8] was 1.6 ± 0.1 µM and the “THP-1 SI” value [8] was 10.5.
In the case of O=C1/C(=C/c2cccc(/N=C/c3cc(Br)ccc3O)c2)CCC/C1=C\c1cccc(/N=C/c2cc(Br)ccc2O)c1 [3c], the IC50 [1] is reported as 14 ± 0.1 µM, the “K562 SI” value [1] is reported as 0.9 and the IC50 [2, 9] is reported as 10 µM. For the same compound, the “Ave SI” value [2, 10] was 1.4, the IC50 [3] was 13.7 ± 1.1 µM and the “HePG2 SI” value [3] was 0.9. For the same compound, the IC50 [4] was 11.4 ± 0.9 µM, the “HeLa SI” value [4] was 1.0 and the IC50 [5] was 10.6 ± 1.1 µM. For the same compound, the “A549 SI” value [5] was 1.1, the IC50 [6] was 5.2 ± 0.8 µM and the “SGC7901 SI” value [6] was 2.3. For the same compound, the IC50 [7] was 12 ± 0.1 µM, the IC50 [8] was 5.3 ± 0.01 µM and the “THP-1 SI” value [8] was 2.3.
